pKi: −log10 of the molar value.
Target: T1, Adenosine receptor A3 (Homo sapiens, UniProt P0DMS8)
T1 sequence (P0DMS8 whole entry): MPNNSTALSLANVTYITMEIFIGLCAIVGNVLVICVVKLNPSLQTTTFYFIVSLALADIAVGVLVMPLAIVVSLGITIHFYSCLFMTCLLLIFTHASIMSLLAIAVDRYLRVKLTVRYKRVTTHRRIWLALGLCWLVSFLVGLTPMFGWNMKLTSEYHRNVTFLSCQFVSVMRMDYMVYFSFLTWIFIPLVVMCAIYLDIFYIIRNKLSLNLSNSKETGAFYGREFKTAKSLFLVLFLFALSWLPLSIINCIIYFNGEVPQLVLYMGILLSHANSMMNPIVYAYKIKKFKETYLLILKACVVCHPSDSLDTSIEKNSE

`Nc1ccc(CNc2ncnc3c2ncn3[C@@H]2O[C@H](CO)[C@@H](O)[C@H]2O)cc1I` [IABA] was tested. Which pKi did it give?
Its pKi is 8.00.

— BindingDB's records for doi:10.1073/pnas.90.21.10365 (Merck Research Laboratories, 1993)
